Structures can show the parent of a compound that is named as a salt. Where two headings read alike, the source gives them in different places.
How the values were obtained:
[1] = tested on: mixed bacterial inoculum; conditions: for Inoculations Passed: AIRFLEX 192 VAE polymer; for potentiation of the cationic compounds (in words) / preservative efficacy (in words): AIRFLEX 192; for potentiation of the cationic compounds (in words): other metal chelating agent with cationic compound
Description: The following procedure was used to assess the preservative efficacy of several cationic compounds in an anionic surfactant stabilized VAE copolymer emulsion containing less than 1000 ppm vinyl acetate monomer:
(§1) Aeromonas hydrophilia, Alcaligenes faecalis, Corynebacterium ammoniagenes, Enterobacter aerogenes, Escherichia coli, Klebsiella pneumoniae, Pseudomonas aeruginosa, Proteus vulgaris, Providencia rettgeri, Pseudomonas stutzeri, Shewanella putrefaciens, Serratia liquefaciens, Acinetobacter baumannii, Burkholderia cepacia, Chryseobacterium meningosepticum, Sphingobacterium spiritivorum, Ralstonia pickettii, and Gluconoacetobacter liquefaciens.
(§2) Each bacterial culture was individually grown on nutrient agar slants, except GABL was grown on potato dextrose agar slants, by inoculating the agar surfaces. The nutrient agar slants were incubated for 24-48 hours at 30° C. and the potato dextrose agar slants were incubated for 48-72 hours at 25° C. […] The washings from all of the slants were combined into one sterile, Erlenmeyer flask.
(§3) Rapid Automated Bacterial Impedance Technique (RABIT), supplied by Microbiology International, and manufactured by Don Whitley Scientific, Ltd. utilizes the principal of impedance microbiology to detect and assess microbial activity in a given sample. Using the RABIT, microbial metabolism is monitored by measuring the amount of carbon dioxide produced by actively respiring microorganisms. The electrodes in the RABIT test cells are partially covered with alkaline agar containing potassium hydroxide. As inoculated test samples are monitored on the RABIT, carbon dioxide produced from microbial metabolism is absorbed by the alkaline agar resulting in a change in conductivity. Conductivity is monitored with time and the time to reach a pre-specified rate of reduction in conductivity is termed the time to detection (TTD). Therefore, the shorter the TTD, the higher the number of microorganisms present. Failure can be defined as three successive decreases in conductivity equal to or greater than a pre-specified value (−10 microSiemens is recommended by the manufacturer) at any time during the 72 hour RABIT monitoring period. Alternatively, failure can be defined as a pre-specified total change in conductivity.
(§4) Samples (50 g each) of each test emulsion containing a test antimicrobial agent were inoculated with 1.0 mL of the mixed bacterial inoculum. After mixing well, the samples were then placed in a 30° C. incubator. After 1, 2, and 6 days of incubation, each sample was streak plated onto nutrient agar and potato dextrose agar to assess the level of surviving microorganisms. The nutrient agar plates were incubated at 30° C. for 48 hours before assessing the growth. […] On the seventh day of incubation, each test emulsion sample was inoculated again with a freshly prepared mixed bacterial inoculum, mixed well, then placed back into the incubator. The samples were again streak plated onto nutrient agar and potato dextrose agar after incubating for 1, 2, and 6 days since the second inoculation. On the fourteenth day after the test was initiated, the test emulsions were inoculated a third time with another freshly prepared mixed bacterial inoculum and then placed back into the incubator. The samples were again streak plated onto nutrient agar and potato dextrose agar after 1, 2, 6, and 13 days of incubation since the third inoculation to assess surviving microorganisms. Test failure is defined as a microbial viable count >300 CFU/10 μL observed from the nutrient agar or potato dextrose agar streak plate assessments.
(§5) A small amount of a microbial nutrient (typically yeast extract) was added to each emulsion test sample (50 g) containing a test antimicrobial agent. The resulting samples were then inoculated with 1.0 mL of the mixed bacterial inoculum. After mixing well, an aliquot (5 g) of each test sample was placed into separate RABIT indirect conductivity tubes.

[2] = tested on: mixed bacterial inoculum; conditions: for potentiation of the cationic compounds (in words) / preservative efficacy (in words): AIRFLEX 410; for potentiation of the cationic compounds (in words): other metal chelating agent with cationic compound; for Inoculations Passed: AIRFLEX 410 VAE polymer
Description: as §1, §2, §3, §4
as §5, with “tubes. The indirect conductivity tubes were then placed into the RABIT incubator modules set at 30° C. and the conductivity changes monitored for up to 72 hours. The remainder of each test sample was stored in a 30° C. incubator during the RABIT monitoring period.” for “tubes.”

[3] = tested on: yeasts and molds; assay: Fungal biochallenge test in Airflex 410 VAE polymer emulsion; conditions: for Growth on PDA / Surface Fungal Growth: 200 ppm; for Growth on PDA: streak plate after 28 days incubation; for Surface Fungal Growth: visual after 28 days at 25° C.
[4] = biocide dosage 300 ppm active ingredient
[5] = metal chelating agent by itself
[6] = biocide dosage 1000 ppm active ingredient
[7] = cationic compound alone, dosage of 300 ppm or similar dosages

## O=P([O-])([O-])[O-].[Na+].[Na+].[Na+] [Trisodium phosphate]
[1]; [4]
  Inoculations Passed: 0

## O=C(O)CC(O)(CC(=O)O)C(=O)O [Citric acid, sodium salt]
[1]
  potentiation of the cationic compounds (in words): do not exhibit potentiation
[1]; [4]
  Inoculations Passed: 0
[2]
  potentiation of the cationic compounds (in words): do not exhibit potentiation

## O=C([O-])c1ccccc1O.[Na+] [Salicylic acid, sodium salt]
[1]; [4]
  Inoculations Passed: 0

## O=C([O-])CN(CCN(CC(=O)[O-])CC(=O)[O-])CC(=O)[O-].[Na+].[Na+].[Na+].[Na+] [EDTA salt, tetrasodium salt of ethylenediamine tetraacetic acid]
[1]; [5]
  preservative efficacy (in words): inadequate
[1]; [6]
  Inoculations Passed: 0
[3]
  Growth on PDA: Dense
  Surface Fungal Growth: Slight Growth
[3]; used by itself
  protection against the growth of yeasts and molds (in words): no protection
[2]; [5]
  preservative efficacy (in words): inadequate
[2]; [6]
  Inoculations Passed: 0

## CCCCCCCCCC[N+](C)(C)CCCCCCCCCC.[Cl-] [BTC 1010, Didecyldimethylammonium chloride]
[1]; [7]
  preservative efficacy (in words): no preservative efficacy
[1]; [4]
  Inoculations Passed: 0
[3]
  Growth on PDA: Dense
  Surface Fungal Growth: Moderate Growth
[2]; [7]
  preservative efficacy (in words): no preservative efficacy
[2]; [4]
  Inoculations Passed: 0

## CCCCCCCCCCCCCCCC[n+]1ccccc1 [CPC, cetylpyridinium chloride]
[1]; [4]
  Inoculations Passed: 0
[2]; [4]
  Inoculations Passed: 0

## O=C(O)/C=C\C(=O)O [Maleic acid, sodium salt]
[1]
  potentiation of the cationic compounds (in words): do not exhibit potentiation
[1]; [4]
  Inoculations Passed: 0
[2]
  potentiation of the cationic compounds (in words): do not exhibit potentiation

## CCCCCCCCCCCCNC(=N)N.Cl [DGH, n-dodecylguanidine hydrochloride]
[1]; biocide dosage 400 ppm active ingredient
  Inoculations Passed: 0
[2]; [4]
  Inoculations Passed: 0
